In US6800650B2, “Pyridine and quinoline derivatives” (Hoffmann-La Roche Inc., priority 2002, dated 2004):

Molecular target: T1, human DPP-IV (Homo sapiens, UniProt P27487)
T1 construct: made in house; host or cells: Pichia pastoris, purified from the culture medium
Experiment: DPP-IV activity assay (colorimetric / fluorometric), IC50 determination
Assay type: biochemical
Conditions: natural human DPP-IV from human plasma pool or recombinant human DPP-IV; 37° C., pH 7.8
Protocol: The following tests were carried out in order to determine the activity of the compounds of formula I.
Activity of DPP-IV inhibitors are tested with natural human DPP-IV derived from a human plasma pool or with recombinant human DPP-IV. Human citrate plasma from different donors is pooled, filtered through a 0.2 micron membrane under sterile conditions, and aliquots of 1 ml are shock frozen and stored at −120° C. until used. In the colorimetric DPP-IV assay 5 to 10 μl human plasma, and in the fluorometric assay 1.0 μl of human plasma in a total assay volume of 100 μl is used as an enzyme source. The cDNA of the human DPP-IV sequence of amino acid 31- to 766, restricted for the N-terminus and the transmembrane domain, is cloned into pichia pastoris. The sequence is available under Accession Number NM_001935. It is also disclosed, for example, in Misumi et al. (1992), molecular cloning and sequence analysis of human dipeptidyl peptidase IV, a serine proteinase of the cell surface. Biochim Biophys. Acta 1131(3), 333-336. Human DPP-IV is expressed and purified from the culture medium using conventional column chromatography including size exclusion and anion and cation chromatography. The purity of the final enzyme preparation of Coomassie blue SDS-PAGE is >95%. In the colorimetric DPP-IV assay 20 ng rec.-h DPP-IV and in the fluorometric assay 2 ng rec-h DPP-IV in a total assay volume of 100 μl is used as an enzyme source.
In the fluorogenic assay Ala-Pro-7-amido-4-trifluoromethylcoumarin (Calbiochem No 125510) is used as a substrate. A 20 mM stock solution in 10% DMF/H2O is stored at −20° C. until use. In IC50 determinations a final substrate concentration of 50 μM is used. In assays to determine kinetic parameters as Km, Vmax, Ki, the substrate concentration is varied between 10 μM and 500 μM.
In the colorimetric assay H-Ala-Pro-pNA.HCl (Bachem L-1115) is used as a substrate. A 10 mM stock solution in 10% MeOH/H2O is stored at −20° C. until use. In IC50 determinations a final substrate concentration of 200 μM is used. In assays to determine kinetic parameters as Km, Vmax, Ki, the substrate concentration is varied between 100 μM and 2000 μM.
Fluorescence is detected in a Perkin Elmer Luminescence Spectrometer LS 50B at an excitation wavelength of 400 nm and an emission wavelength of 505 nm continuously every 15 seconds for 10 to 30 minutes. Initial rate constants are calculated by best fit linear regression.
The absorption of pNA i.e., para-nitroanilin, liberated from the colorimetric substrate is detected in a Packard SpectraCount at […] continuously every 2 minutes for 30 to 120 minutes. Initial rate constants are calculated by best fit linear regression.
DPP-IV activity assays are performed in 96 well plates at 37° C. in a total assay volume of 100 μl. The assay buffer consists of 50 mM Tris/HCl pH 7.8 containing 0.1 mg/ml BSA and 100 mM NaCl. Test compounds are solved in 100% DMSO, diluted to the desired concentration in 10% DMSO/H2O. The final DMSO concentration in the assay is 1% (v/v). At this concentration enzyme inactivation by DMSO is <5%. Compounds are with (10 minutes at 37° C.) and without preincubation with the enzyme. Enzyme reactions are started with substrate application followed by immediate mixing.
IC50 determinations of test compounds are calculated by non-linear best fit regression of the DPP-IV inhibition of at least 5 different compound concentrations. Kinetic parameters of the enzyme reaction are calculated at least 5 different substrate concentrations and at least 5 different test compound concentrations.

T1 sequence (P27487 31-766): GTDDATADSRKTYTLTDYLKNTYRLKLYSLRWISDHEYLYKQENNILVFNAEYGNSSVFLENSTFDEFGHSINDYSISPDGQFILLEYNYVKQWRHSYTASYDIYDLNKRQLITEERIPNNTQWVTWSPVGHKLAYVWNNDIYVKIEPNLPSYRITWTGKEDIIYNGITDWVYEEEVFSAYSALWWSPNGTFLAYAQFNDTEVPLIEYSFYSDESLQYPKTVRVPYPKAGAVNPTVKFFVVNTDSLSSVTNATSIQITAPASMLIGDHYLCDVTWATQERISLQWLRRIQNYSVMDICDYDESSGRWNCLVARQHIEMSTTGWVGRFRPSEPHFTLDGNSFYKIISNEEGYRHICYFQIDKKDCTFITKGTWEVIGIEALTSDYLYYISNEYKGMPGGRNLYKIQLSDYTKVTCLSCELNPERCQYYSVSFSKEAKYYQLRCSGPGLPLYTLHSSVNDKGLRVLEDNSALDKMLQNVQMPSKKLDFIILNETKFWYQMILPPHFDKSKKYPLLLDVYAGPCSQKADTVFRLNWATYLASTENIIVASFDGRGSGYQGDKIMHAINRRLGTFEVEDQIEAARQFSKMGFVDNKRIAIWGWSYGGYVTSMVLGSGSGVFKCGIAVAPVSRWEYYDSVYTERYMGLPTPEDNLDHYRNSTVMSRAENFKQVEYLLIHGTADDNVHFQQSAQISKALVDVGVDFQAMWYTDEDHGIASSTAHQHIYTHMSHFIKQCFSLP

SMILES | IC50 [nM]
NCc1c(N)nc2c(c1-c1ccc(Cl)cc1Cl)CCc1ccccc1-2 [Example 3, 3-Aminomethyl-4-(2,4-dichloro-phenyl)-5,6-dihydro-benzo[h]quinolin-2-ylamine] | 45
COc1cc2c(cc1OC)-c1nc(N)c(CN)c(-c3ccc(Cl)cc3Cl)c1C2 [Example 7, 3-Aminomethyl-4-(2,4-dichloro-phenyl)-7,8-dimethoxy-5H-indeno[1,2-b]pyridin-2-ylamine] | 2.7
NCc1c(N)nc2c(c1-c1ccc(Cl)cc1Cl)COc1ccccc1-2 [Example 9, 2-Aminomethyl-1-(2,4-dichloro-phenyl)-10H-9-oxa-4-aza-phenanthren-3-ylamine] | 18
NCc1c(N)nc2c(c1-c1ccc(Cl)cc1Cl)CCc1sccc1-2 [Example 10, 3-Aminomethyl-4-(2,4-dichloro-phenyl)-5,6-dihydro-thieno[2,3-h]quinolin-2-ylamine] | 80
Cc1ccc(-c2c(CN)c(N)nc3ccccc23)cc1 [Example 25, 3-Aminomethyl-4-p-tolyl-quinolin-2-ylamine] | 1910

Other lines, results leading:

IC50 [nM] | SMILES
1590 | NCc1c(N)nc2ccc(Cl)cc2c1-c1ccccc1Cl [Example 28, 3-Aminomethyl-6-chloro-4-(2-chloro-phenyl)-quinolin-2-ylamine]
366 | NCc1c(N)nc2ccccc2c1-c1ccccc1Cl [Example 32, 3-Aminomethyl-4-(2-chloro-phenyl)-quinolin-2-ylamine]
